Measured values reported in patent publication US7015246B2, “Benzofuran derivatives” (Bayer Aktiengesellschaft, priority 2001, dated 2006).

The compounds below were run on thyroid hormone-regulated promoter (TRE) luciferase in HepG2 hepatocarcinoma cell (assay: T3 promoter assay cell test (luciferase reporter)). Details: Homo sapiens; stably transfected HepG2 cells, luciferase induction; one range stated for the listed examples together; read-out: effect in the T3 promoter assay cell test.
Assay type: cell-based
Description: The activity of the compounds according to the invention can be tested, for example, in vitro using the T3 Promoter Assay Cell test, which is described below:
The test is carried out using a stably transfected human HepG2 hepatocarcinoma cell which expresses a luciferase gene under the control of a thyroid hormone-regulated promoter. The vector which is used for the transfection carries a minimal thymidine kinase promoter, containing a thyroid hormone-responsive element (TRE) which consists of two inverted palindromes of in each case 12 bp and an 8 bp spacer, upstream of the luciferase gene.
For the test, the cell cultures are sown, in Eagle's minimal essential medium containing the following additions: glutamine, tricine [N(tris-(hydroxymethyl)-methyl)glycine], sodium pyruvate, non essential amino acids, (L-Ala, L-Asn, L-Asp, L-Pro, L-Ser, L-Glu, Gly), insulin, selenium and transferrin, in 96-well plates. The cultures are grown for 48 hours at 37° C. and under a 10% CO2 atmosphere. After that, serial dilutions of test substance or reference compound (T3, T4) and costimulator retinoic acid are added to the test cultures and the latter are incubated for a further 48 or 72 hours as before. Each substance concentration is tested in four replicates. In order to determine the luciferase which is induced by T3 or other substances, the cells are then lyzed by adding a buffer containing Triton and luciferin (from Promega) and immediately measured luminometrically.

Row | EC50 [nM] | Structure (SMILES)
1 | 0.5 to 240 | CCOC(=O)Cc1coc2c(C)c(Oc3ccc(OC)c(C(C)C)c3)c(C)cc12 [Example 18, Ethyl 2-[6-(3-isopropyl-4-methoxyphenoxy)-5,7-dimethyl-1-benzofuran-3-yl]acetate]
2 | 0.5 to 240 | CCOC(=O)c1cc2c(Br)c(Oc3ccc(O)c(C(=O)c4ccc(F)cc4)c3)c(Br)cc2o1 [Example 32, Ethyl 4,6-dibromo-5-[3-(4-fluorobenzoyl)-4-hydroxyphenoxy]-1-benzofuran-2-carboxylate]
3 | 0.5 to 240 | Cc1cc2oc(C(=O)O)cc2c(C)c1Oc1ccc(O)c(C(C)C)c1 [Example 17, 5-(4-Hydroxy-3-isopropylphenoxy)-4,6-dimethyl-1-benzofuran-2-carboxylic acid]
4 | 0.5 to 240 | CCOC(=O)CC1Cc2c(cc(C)c(Oc3ccc(O)c(C(C)C)c3)c2C)O1 (stereo not shown) [Example 28, Ethyl [5-(4-hydroxy-3-isopropylphenoxy)-4,6-dimethyl-2,3-dihydro-1-benzofuran-2-yl]acetate]
